{"source": "patent US12516039B2", "about": "“N-linked isoquinoline amides as LRRK2 inhibitors, pharmaceutical compositions, and uses thereof” (Merck Sharp & Dohme LLC, priority 2020, dated 2026)", "data": [{"biological_target": "T1, GST-tagged truncated human mutant G2019S LRRK2 (Homo sapiens, UniProt Q5S007, G2019S)", "T1 construct": "GST-tagged truncated human mutant G2019S LRRK2; purchased Life Technologies Corporation (Carlsbad, CA)", "T1 sequence (Q5S007 970-2527 G2019S limits assumed)": "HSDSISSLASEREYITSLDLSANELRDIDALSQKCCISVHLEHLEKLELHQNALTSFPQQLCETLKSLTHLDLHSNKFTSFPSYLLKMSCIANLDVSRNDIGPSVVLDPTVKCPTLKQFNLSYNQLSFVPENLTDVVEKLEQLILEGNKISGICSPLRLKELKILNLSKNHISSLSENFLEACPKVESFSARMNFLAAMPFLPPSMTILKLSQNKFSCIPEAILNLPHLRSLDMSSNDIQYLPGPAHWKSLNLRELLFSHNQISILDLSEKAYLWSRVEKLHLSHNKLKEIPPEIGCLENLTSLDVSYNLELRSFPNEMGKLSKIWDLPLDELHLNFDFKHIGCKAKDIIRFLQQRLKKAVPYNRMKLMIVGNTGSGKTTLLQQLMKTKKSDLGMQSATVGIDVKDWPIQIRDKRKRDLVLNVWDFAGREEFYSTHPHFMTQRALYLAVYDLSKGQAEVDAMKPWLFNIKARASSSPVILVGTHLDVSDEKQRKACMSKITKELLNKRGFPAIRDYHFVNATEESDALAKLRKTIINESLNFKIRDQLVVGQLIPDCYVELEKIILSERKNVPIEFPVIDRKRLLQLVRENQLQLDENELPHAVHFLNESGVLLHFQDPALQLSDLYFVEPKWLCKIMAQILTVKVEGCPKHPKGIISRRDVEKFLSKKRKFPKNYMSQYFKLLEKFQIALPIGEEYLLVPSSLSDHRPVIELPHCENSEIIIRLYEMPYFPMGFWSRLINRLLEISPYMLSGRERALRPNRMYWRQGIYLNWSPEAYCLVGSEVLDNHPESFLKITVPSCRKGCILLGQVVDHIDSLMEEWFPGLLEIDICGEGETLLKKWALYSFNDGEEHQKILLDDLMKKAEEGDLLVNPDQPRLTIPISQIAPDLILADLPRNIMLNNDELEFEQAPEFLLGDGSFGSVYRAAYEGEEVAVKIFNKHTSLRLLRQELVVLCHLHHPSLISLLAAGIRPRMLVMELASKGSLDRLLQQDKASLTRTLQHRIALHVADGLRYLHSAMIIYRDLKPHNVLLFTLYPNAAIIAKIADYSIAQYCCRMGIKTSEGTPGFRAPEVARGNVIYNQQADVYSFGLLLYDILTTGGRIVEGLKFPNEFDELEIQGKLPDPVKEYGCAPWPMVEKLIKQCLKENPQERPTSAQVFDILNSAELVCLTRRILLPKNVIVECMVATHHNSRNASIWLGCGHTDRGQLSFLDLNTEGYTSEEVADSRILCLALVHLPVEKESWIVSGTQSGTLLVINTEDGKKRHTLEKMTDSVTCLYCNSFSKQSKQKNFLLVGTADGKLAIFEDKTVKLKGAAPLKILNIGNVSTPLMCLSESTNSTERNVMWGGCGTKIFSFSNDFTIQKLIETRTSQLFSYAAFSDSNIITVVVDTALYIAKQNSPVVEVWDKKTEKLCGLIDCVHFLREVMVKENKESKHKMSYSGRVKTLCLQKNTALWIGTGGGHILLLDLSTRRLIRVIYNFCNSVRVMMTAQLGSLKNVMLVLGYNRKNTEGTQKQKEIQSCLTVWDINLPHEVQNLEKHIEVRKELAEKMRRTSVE", "experiment": "LRRK2 G2019S Km ATP LanthaScreen assay", "type": "biochemical", "details": "134 μM ATP (Km ATP), LRRKtide substrate, mean of several tests", "method": "(§1) Unless otherwise noted, all reactions are magnetically stirred. Unless otherwise noted, when diethyl ether is used in the experiments described below, it is Fisher ACS certified material and is stabilized with BHT. Unless otherwise noted, “concentrated” and/or “solvent removed under reduced pressure” means evaporating the solvent from a solution or mixture using a rotary evaporator or vacuum pump. Unless otherwise noted, flash chromatography is carried out on a Teledyne Isco (Lincoln, NE), Analogix (Burlington, WI), or Biotage (Stockholm, SWE) automated chromatography system using a commercially available cartridge as the column. Columns may be purchased from Teledyne Isco, Analogix, Biotage, Varian (Palo Alto, CA), or Supelco (Bellefonte, PA) and are usually filled with silica gel as the stationary phase. Reverse phase prep-HPLC conditions, where used, can be found at the end of each experimental section. Aqueous solutions were concentrated on a Genevac (Ipswich, ENG) or by freeze-drying/lyophilization. Unless otherwise noted, all LRRK2 pIC50 data presented in tables refers to the LRRK2 G2019S Km ATP LanthaScreen™ assay (Life Technologies Corp., Carlsbad, CA) that is described in the Biological Assay section.\n(§2) Biological Assay: LRRK2 Km ATP LanthaScreen™ Assay\n(§3) The LRRK2 kinase activity reported herein as IC50 values was determined with LanthaScreen™ technology from Life Technologies Corporation (Carlsbad, CA) using GST-tagged truncated human mutant G2019S LRRK2 in the presence of the fluorescein-labeled peptide substrate LRRKtide, also from Life Technologies. The data presented for the Km ATP LanthaScreen™ Assay represents mean IC50 values based on several test results and may have reasonable deviations depending on the specific conditions and reagents used. Assays were performed in the presence of 134 μM ATP (Km ATP). Upon completion, the assay was stopped and phosphorylated substrate detected with a terbium (Tb)-labeled anti-pERM antibody (cat. no. PV4898). The compound dose response was prepared by diluting a 10 mM stock of compound to a maximum concentration of 9.99 μM in 100% dimethylsulfoxide followed by custom fold serial dilution in dimethylsulfoxide nine times. Twenty nanoliters of each dilution was spotted via a Labcyte Echo onto a 384-well black-sided plate (Corning 3575) followed by 15 μl of a 1.25 nM enzyme solution in 1× assay buffer (50 mM Tris pH 8.5, 10 mM MgCl2, 0.01% Brij-35, 1 mM EGTA, 2 mM dithiothreitol, 0.05 mM sodium orthovanadate). Following a 15-minute incubation at room temperature, the kinase reaction was started with the addition of 5 μl of 400 nM fluorescein-labeled LRRKtide peptide substrate and 134 μM ATP solution in 1× assay buffer. The reaction was allowed to progress at ambient temperature for 90 minutes. The reaction was then stopped by the addition of 20 μl of TR-FRET Dilution Buffer (Life Technologies, Carlsbad, CA) containing 2 nM Tb-labeled anti-phospho LRRKtide antibody and 10 mM EDTA (Life Technologies, Carlsbad, CA). After an incubation of 1 hour at room temperature, the plate was read on an EnVision multimode plate reader (Perkin Elmer, Waltham, MA) with an excitation wavelength of 337 nm (Laser) and a reading emission at both 520 and 495 nm. Compound IC50s were interpolated from nonlinear regression best fits of the log of the final compound concentration, plotted as a function of the 520/495-nm emission ratio using Activity base. Abase uses a 4 parameter (4P) logistic fit based on the Levenberg-Marquardt algorithm.", "values": [{"compound": "CC(C)C1CC(C(=O)Nc2cc3cc(N4CCN(C5(C)COCC5O)CC4)c(Cl)cc3cn2)C1", "note": "(centres unmarked) [Ex-9.3]", "LRRK2 pIC50": 8.58}, {"compound": "CC1(N2CCN(c3cc4cc(NC(=O)C5CC56CCOCC6)ncc4cc3C3CC3)CC2)COCC1O", "note": "(centres unmarked) [Ex-6.11]", "LRRK2 pIC50": 9.57}, {"compound": "COCCC(=O)Nc1cc2cc(N3CCN(C4(C)COCC4O)CC3)c(Cl)cc2cn1", "note": "(centres unmarked) [Ex-9.1]", "LRRK2 pIC50": 8.12}]}, {"biological_target": "T1, GST-tagged truncated human mutant G2019S LRRK2", "experiment": "LRRK2 G2019S Km ATP LanthaScreen assay", "type": "biochemical", "details": "134 μM ATP (Km ATP), LRRKtide substrate, mean of several tests, read-out: LRRK2 pIC50 (converted)", "method": "as §1, §2, §3", "units": {"IC50": "nM"}, "values": [{"compound": "CC1(N2CCN(c3cc4cc(NC(=O)C5CC56CCC(F)(F)CC6)ncc4cc3Cl)CC2)COCC1O", "note": "(single isomer, unassigned) [Ex-1.20, (1R or 1S)-N-(7-chloro-6-(4-((3R,4R or 3S,4S)-4-hydroxy-3-methyltetrahydrofuran-3-yl)piperazin-1-yl)isoquinolin-3-yl)-6,6-difluorospiro[2.5]octane-1-carboxamide]", "IC50": 63.1}, {"compound": "Cc1cc2cnc(NC(=O)C3CC3c3ccccn3)cc2cc1N1CCN(C2(C)COCC2F)CC1", "note": "(single isomer, unassigned) [Ex-6.13]", "IC50": 0.0813}, {"compound": "CC1(C)C(C(=O)Nc2cc3cc(N4CCN(C5(C)COCC5O)CC4)c(Cl)cc3cn2)C1C1CCCCO1", "note": "(single isomer, unassigned) [Ex-10.91, (1R,2R,3R, 1R,2S,3R, or 1S,2R,3S, or 1S,2S,3S)-N-[7-chloro-6-[4-((3R,4R or 3S,4S)-4-hydroxy-3-methyl-tetrahydrofuran-3-yl)piperazin-1-yl]-3-isoquinolyl]-2,2-dimethyl-3-tetrahydropyran-2-yl-cyclopropanecarboxamide]", "IC50": 0.0813}, {"compound": "COC1COCC1N1CCN(c2cc3cc(NC(=O)C4CC45CCOCC5)ncc3cc2Cl)CC1", "note": "(single isomer, unassigned) [Ex-5.7]", "IC50": 2.63}, {"compound": "CC1(N2CCN(c3cc4cc(NC(=O)C5CC56CC6)ncc4cc3Cl)CC2)COCC1O", "note": "(single isomer, unassigned) [Ex-2.13, (R or S)-N-(7-chloro-6-(4-((3R,4R or 3S,4S)-4-hydroxy-3-methyltetrahydrofuran-3-yl)piperazin-1-yl)isoquinolin-3-yl)spiro[2.2]pentane-1-carboxamide]", "IC50": 33.9}, {"compound": "COC1CC(C(=O)Nc2cc3cc(N4CCN(C5(C)COCC5O)CC4)c(Cl)cc3cn2)C1", "note": "(single isomer, unassigned) [Ex-7.2]", "IC50": 0.977}, {"compound": "CC1(N2CCN(c3cc4cc(NC(=O)C5CCC5c5ccccn5)ncc4cc3Cl)CC2)COCC1O", "note": "(single isomer, unassigned) [Ex-11.5, (1R,2R or 1S,2S)-N-(7-chloro-6-(4-((3R,4R or 3S,4S)-4-hydroxy-3-methyltetrahydrofuran-3-yl)piperazin-1-yl)isoquinolin-3-yl)-2-(pyridin-2-yl)cyclobutane-1-carboxamide]", "IC50": 0.0813}, {"compound": "CCOC1CC1C(=O)Nc1cc2cc(N3CCN(C4(C)COCC4O)CC3)c(Cl)cc2cn1", "note": "(single isomer, unassigned) [Ex-10.11]", "IC50": 0.851}, {"compound": "CC1C(C(=O)Nc2cc3cc(N4CCN(C5(C)CCOC5)CC4)c(Cl)cc3cn2)C1c1cnn(C)c1", "note": "(single isomer, unassigned) [Ex-9.9]", "IC50": 0.417}, {"compound": "N#CC1(F)CCN(c2cc3cc(NC(=O)C4CC4c4cncnc4)ncc3cc2Cl)CC1", "note": "(single isomer, unassigned) [Ex-5.20]", "IC50": 9.12}, {"compound": "CC1(N2CCN(c3cc4cc(NC(=O)C5CC5C(F)F)ncc4cc3Cl)CC2)COCC1F", "note": "(single isomer, unassigned) [Ex-10.78, (1R,2R or 1S,2S)-N-[7-chloro-6-[4-((3R,4R or 3S,4S)-4-fluoro-3-methyl-tetrahydrofuran-3-yl)piperazin-1-yl]-3-isoquinolyl]-2-(difluoromethyl)cyclopropanecarboxamide]", "IC50": 0.0813}, {"compound": "Cn1ncc(C2CC2C(=O)Nc2cc3cc(N4CCN(C5(C)COCC5F)CC4)c(Cl)cc3cn2)c1C(F)(F)F", "note": "(single isomer, unassigned) [Ex-10.61, (1R,2R or 1S,2S)-N-[7-chloro-6-[4-((3R,4R or 3S,4S)-4-fluoro-3-methyl-tetrahydrofuran-3-yl)piperazin-4-ium-1-yl]-3-isoquinolyl]-2-[1-methyl-5-(trifluoromethyl)pyrazol-4-yl]cyclopropanecarboxamide]", "IC50": 3.02}, {"compound": "CC(C)Cn1nccc1C1CC1C(=O)Nc1cc2cc(N3CCN(C4(C)COCC4O)CC3)c(Cl)cc2cn1", "note": "(single isomer, unassigned) [Ex-10.20, (1R,2R or 1S,2S)-N-[7-chloro-6-[4-((3R,4R or 3S,4S)-4-hydroxy-3-methyl-tetrahydrofuran-3-yl)piperazin-1-yl]-3-isoquinolyl]-2-(2-isobutylpyrazol-3-yl)cyclopropanecarboxamide]", "IC50": 2.24}, {"compound": "CC1(N2CCN(c3cc4cc(NC(=O)C5CC56CCCOC6)ncc4cc3Cl)CC2)COCC1O", "note": "(single isomer, unassigned) [Ex-1.11, (1R,3S, or 1R,3R, or 1S,3S, or 1S,3R)-N-(7-chloro-6-(4-((3R,4R or 3S,4S)-4-hydroxy-3-methyltetrahydrofuran-3-yl)piperazin-1-yl)isoquinolin-3-yl)-5-oxaspiro[2.5]octane-1-carboxamide]", "IC50": 1.7}, {"compound": "CC1(N2CCN(c3cc4cc(NC(=O)C5CC56CCOCC6)ncc4cc3Cl)CC2)COCC1C#N", "note": "(racemic) [Ex-18.1]", "IC50": 0.912}, {"compound": "C[C@H]1CN(c2cc3cc(NC(=O)C4CC45CCOCC5)ncc3cc2Cl)CCN1C1(C)COCC1O", "note": "(single isomer, unassigned) [Ex-2.21, (R or S)-N-(7-chloro-6-((S or R)-4-((3R,4R, or 3S,4S)-4-hydroxy-3-methyltetrahydrofuran-3-yl)-3-methylpiperazin-1-yl)isoquinolin-3-yl)-6-oxaspiro[2.5]octane-1-carboxamide]", "IC50": 0.589}, {"compound": "CC1(N2CCN(c3cc4cc(NC(=O)C5CC5)ncc4cc3Cl)CC2)COCC1O", "note": "(single isomer, unassigned) [Ex-1.2, (3R,4R or 3S,4S)-N-(7-chloro-6-(4-(4-hydroxy-3-methyltetrahydrofuran-3-yl)piperazin-1-yl)isoquinolin-3-yl)cyclopropanecarboxamide]", "IC50": 25.1}, {"compound": "CCC1C(C(=O)Nc2cc3cc(N4CCN(C5(C)COCC5F)CC4)c(Cl)cc3cn2)C1c1ccn(C)n1", "note": "(single isomer, unassigned) [Ex-10.51, (1R,2R,3R, 1R,2S,3R, or 1S,2R,3S, or 1S,2S,3S)-N-[7-chloro-6-[4-((3R,4R or 3S,4S)-4-fluoro-3-methyl-tetrahydrofuran-3-yl)piperazin-1-yl]-3-isoquinolyl]-2-ethyl-3-(1-methylpyrazol-3-yl)cyclopropanecarboxamide]", "IC50": 0.0813}, {"compound": "CC1(N2CCN(c3cc4cc(NC(=O)C5CC56CCCOC6)ncc4cc3Cl)CC2)COCC1O", "note": "(single isomer, unassigned) [Ex-1.18, (1R,3S, or 1R,3R, or 1S,3S, or 1S,3R)-N-(7-chloro-6-(4-((3R,4R or 3S,4S)-4-hydroxy-3-methyltetrahydrofuran-3-yl)piperazin-1-yl)isoquinolin-3-yl)-5-oxaspiro[2.5]octane-1-carboxamide]", "IC50": 0.724}, {"compound": "COC1COCC1(C)N1CCN(c2cc3cc(NC(=O)C4CC45CCOCC5)ncc3cc2Cl)CC1", "note": "(single isomer, unassigned) [Ex-5.5]", "IC50": 2.63}, {"compound": "Cc1cc2cnc(NC(=O)C3C(C)C3c3cnn(C)c3)cc2cc1N1CCN(C2(C)CCOC2)CC1", "note": "(single isomer, unassigned) [Ex-9.14]", "IC50": 0.0813}, {"compound": "CC1(N2CCN(c3cc4cc(NC(=O)C5CC56CC6)ncc4cc3Cl)CC2)COCC1F", "note": "(single isomer, unassigned) [Ex-10.79, (R or S)-N-[7-chloro-6-[4-((3R,4R or 3S,4S)-4-fluoro-3-methyl-tetrahydrofuran-3-yl)piperazin-1-yl]-3-isoquinolyl]spiro[2.2]pentane-2-carboxamide]", "IC50": 0.0813}, {"compound": "N#CC1(F)CCN(c2cc3cc(NC(=O)C4CC4c4cncnc4)ncc3cc2Cl)CC1", "note": "(single isomer, unassigned) [Ex-5.19]", "IC50": 117}]}]}
